In general, half-life refers to how long it takes for the measured level to halve. What is called EC50 is the concentration that produces a half-maximal response. A word on the AUC(0-inf): it is the area under the concentration-time curve extrapolated to infinity. As a reminder, the CL/F is clearance divided by bioavailability, as obtained after extravascular dosing. The Cmax is the highest concentration seen after dosing. A word on the Tmax: it is the time from dosing to the highest level.

The conditions of data set [1]: background statement; cited from earlier work.
The target in data set [2] is human AMY1 receptor (Homo sapiens, UniProt O60894+P30988). Briefly: hAMY1 cAMP functional assay (HTRF). It is filed as cell-based. How it is done:
The AMY1 and CT receptors are GPCRs that are functionally coupled to Gαs proteins. Stimulation of these receptors results in an increased production of intracellular cAMP, which can be detected using standard in vitro technologies. Human AMY1 or CT receptors are stably expressed in human urinary bladder cells (UM-UC-3) cells under control of a pcDNA (CALCR) or pCMV piggybac (RAMP1) expression vector. AMY1 cells are cultured in MEM 1X (Corning) supplemented with 10% FBS, 1% antibiotic/antimycotic solution, 1 mM sodium pyruvate, 1X MEM NEAA, 1X GlutaMAX-I, 200 μg/mL hygromycin B, and 0.4 μg/mL puromycin. CT cells are cultured in the same medium except that it lacks the puromycin. Cultured cells are grown to 70% confluency, and then incubated overnight with fresh medium.
On the assay day, 10 μL of assay buffer (phenol red free MEM (Corning, cat #17-305-CV), 0.1% casein, 0.5 mM IBMX, 5 mM HEPES, pH 7.4) is dispensed into each well of white poly-D-lysine coated 384-well plates (Corning cat #354661). […]
The amount of intracellular cAMP is quantitated using HTRF technology (Homogeneous Time Resolved Fluorescence; Cisbio) as per vendor instructions. […] The HTRF signal is immediately detected using an Envision plate reader (Perkin-Elmer) to calculate the ratio of fluorescence at 665 to 620 nm. […]
(In general: Time-resolved FRET reads energy transfer from a long-lived donor to a nearby acceptor.)

The target in data set [3] is T1, human CT receptor (Homo sapiens, UniProt P30988).
T1 sequence (P30988 25-474): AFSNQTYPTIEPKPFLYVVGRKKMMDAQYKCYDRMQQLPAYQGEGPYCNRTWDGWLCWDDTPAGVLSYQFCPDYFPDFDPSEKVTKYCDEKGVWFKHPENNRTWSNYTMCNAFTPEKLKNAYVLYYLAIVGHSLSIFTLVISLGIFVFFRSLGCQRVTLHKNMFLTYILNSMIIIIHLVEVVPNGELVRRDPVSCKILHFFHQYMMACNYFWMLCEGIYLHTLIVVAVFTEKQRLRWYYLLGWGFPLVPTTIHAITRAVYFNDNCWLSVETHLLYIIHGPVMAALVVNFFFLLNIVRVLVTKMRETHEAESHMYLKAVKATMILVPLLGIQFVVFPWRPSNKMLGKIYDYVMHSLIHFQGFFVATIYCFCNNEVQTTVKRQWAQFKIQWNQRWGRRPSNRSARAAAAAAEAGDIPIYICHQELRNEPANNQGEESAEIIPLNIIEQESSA
Briefly: hCT cAMP functional assay (HTRF). It is filed as cell-based.
Procedure: The AMY1 and CT receptors are GPCRs that are functionally coupled to Gαs proteins. […] Human AMY1 or CT receptors are stably expressed in human urinary bladder cells (UM-UC-3) cells under control of a pcDNA (CALCR) or pCMV piggybac (RAMP1) expression vector. AMY1 cells are cultured in MEM 1X (Corning) supplemented with 10% FBS, 1% antibiotic/antimycotic solution, 1 mM sodium pyruvate, 1X MEM NEAA, 1X GlutaMAX-I, 200 μg/mL hygromycin B, and 0.4 μg/mL puromycin. CT cells are cultured in the same medium except that it lacks the puromycin. Cultured cells are grown to 70% confluency, and then incubated overnight with fresh medium.
Peptides diluted in DMSO are added (200 nL/well) in a 1:3 dilution series using ECHO acoustic liquid handler (Beckman). Cultured cells are detached with TrypLE Express (Gibco), resuspended in assay buffer, and 10 μL containing 1200 cells/well (hCT) or 1500 cells/well (hAMY1) are dispensed into each well. The plates are incubated at room temperature for 1 hour.
The amount of intracellular cAMP is quantitated using HTRF technology (Homogeneous Time Resolved Fluorescence; Cisbio) as per vendor instructions. Briefly, 10 μL cAMP-d2 conjugate and 10 μL anti-cAMP-cryptate conjugate in lysis buffer are incubated with the treated cells at room temperature for 60 min. […]

A short description of data set [4]: Monkey pharmacokinetics, single subcutaneous dose. It is filed as in vivo. The settings on record: cynomolgus monkey, plasma, sc, 20 nmol/kg, single 20 nmol/kg SC. On the procedure: (§1) Plasma concentration of Compound II is determined by a qualified Liquid Chromatography Mass Spectrometry (LC/MS) method at Q Squared Solutions BioSciences LLC, Ithaca, N.Y. Compound II and an analog as an internal standard are extracted from 100% species-specific plasma using protein precipitation followed by solid phase extraction. The intact mass of Compound II which includes peptide plus acyl chain is detected by a Q-Exactive Orbitrap™ mass spectrometer.
In a monkey pharmacokinetics study, male and female Cynomolgus monkeys are administered a single subcutaneous dose of 20 nmol/kg (0.084 mg/kg) of Compound II in Tris-mannitol buffer (pH 8.0) at a volume of 0.2 mL/kg. Blood is collected predose and at 1, 3, 6, 12, 24, 48, 72, 96, 120, 144, 168, 240, 336, 408, 504 hours postdose for pharmacokinetic characterization.

Data set [5] is described as follows: Rat pharmacokinetics, single subcutaneous dose. It is filed as in vivo. The settings on record: male, Sprague Dawley, plasma, sc, 20 nmol/kg, single 20 nmol/kg SC. How it is done:
as §1
In a rat pharmacokinetic study, male Sprague Dawley rats are administered a single subcutaneous dose of 20 nmol/kg (0.084 mg/kg) of Compound II in Tris-mannitol buffer (pH 8.0) at a volume of 0.2 mL/kg. Blood is collected at 1-, 3-, 6-, 12-, 24-, 48-, 72-, 96-, 120-, and 144-hours post-dose for pharmacokinetic characterization.

For data set [6], the system named is Primary human dendritic cells.
In data set [7] the test system is CD4+ T cells.
Procedure: Cryopreserved PBMCs were used from ten healthy donors and the CD8+ T cells were depleted from the PBMCs and labeled with 1 μM Carboxyfluorescein Diacetate Succinimidyl Ester (CFSE). […] Cells were cultured and incubated for 7 days at 37° C. with 5% CO2. On day 7, samples were stained with the following cell surface markers: anti-CD3, anti-CD4, anti-CD14, anti-CD19, and DAPI for viability detection by flow cytometry using a BD LSRFortessa™, equipped with a High Throughput Sampler (HTS). Data was analyzed using FlowJo® Software (FlowJo, LLC, TreeStar) and a Cellular Division Index (CDI) was calculated. Briefly, the CDI for each test candidate's MAPPs-derived peptide cluster was calculated by dividing the percent of proliferating CFSE^dimCD4+ T cells from peptide-stimulated wells by the percent of proliferating CFSE^dimCD4+ T cells in the unstimulated wells. A CDI of ≥2.5 was considered to represent a positive response. A percent donor frequency across all donors was evaluated.

Read-outs that look alike come from different tables or passages of the source. Starred links: 1 amine or outer side, 2 acyl side, 3 side chain; linkers in the order of their positions; H or OH if unused. Non-standard residues stand in square brackets, D forms with d. Residues, ends and D or L forms follow the SMILES beside them. Groups on a side chain read outwards from the residue. *: point of attachment. C20 diacid = O=C(O)CCCCCCCCCCCCCCCCCCC(=O)*; γGlu = O=C(O)[C@H](CCC(=O)[*:2])N[*:1]; AEEA = NCCOCCOCC(=O)O; Aib = CC(C)(N)C(=O)O

human AMY1 receptor, sequence (O60894 27-148, one chain of several): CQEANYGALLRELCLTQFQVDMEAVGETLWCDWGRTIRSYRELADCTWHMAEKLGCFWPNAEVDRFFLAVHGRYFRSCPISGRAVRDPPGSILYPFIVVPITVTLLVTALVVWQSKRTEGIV

Consider Salmon calcitonin, for which the half-life entry in data set [1] is listed as “less than two hours”.
As for `CC(=O)N[C@@H](C)C(=O)N[C@@H](CO)C(=O)N[C@@H](Cc1c[nH]cn1)C(=O)N[C@@H](CC(C)C)C(=O)N[C@@H](CO)C(=O)N[C@H](C(=O)N[C@@H](C)C(=O)N[C@H](C(=O)N[C@@H](CC(C)C)C(=O)NCC(=O)N[C@@H](CCCCNC(=O)COCCOCCNC(=O)COCCOCCNC(=O)CC[C@H](NC(=O)CCCCCCCCCCCCCCCCCCC(=O)O)C(=O)O)C(=O)N[C@@H](CC(C)C)C(=O)N[C@@H](CO)C(=O)NC(C)(C)C(=O)N[C@@H](CCC(=O)O)C(=O)N[C@@H](CC(C)C)C(=O)N[C@@H](Cc1c[nH]cn1)C(=O)N[C@@H](CCCCN)C(=O)N[C@@H](CC(C)C)C(=O)N[C@@H](CCC(=O)O)C(=O)N[C@@H](CC(=O)O)C(=O)N[C@@H](Cc1ccc(O)cc1)C(=O)N1CCC[C@H]1C(=O)N[C@@H](CCCNC(=N)N)C(=O)N[C@H](C(=O)N[C@@H](CC(=O)O)C(=O)N[C@H](C(=O)NCC(=O)N[C@@H](C)C(=O)N[C@@H](CCC(=O)O)C(=O)N[C@@H](CO)C(=O)N1CCC[C@H]1C(N)=O)C(C)C)[C@@H](C)O)C(C)C)[C@@H](C)O` [Compound II] (Ac-ASHLSTAVLGK([AEEA-AEEA-γGlu-C20 diacid])LS[Aib]ELHKLEDYPRTDVGAESP-NH2), in data set [2], the response was half-maximal at 0.0494 ± 0.00514 nM (EC50). This molecule displayed an EC50 in data set [3] of 0.0409 ± 0.0147 nM. Also, in data set [4] (both sexes, Mean), the AUC(0-inf) turned out to be 47.5 µM·h, the CL/F is 0.42 mL/h/kg, the peak level (Cmax) was 168 nM and the Tmax came to 42 h. The half-life in data set [4] (both sexes, Mean) is 178 h. Moreover, in data set [4] (animal P0001), the AUC(0-inf) is 50.4 µM·h, the CL/F is 0.4 mL/h/kg, the peak level (Cmax) was 198 nM and the Tmax worked out at 12 h. Also, the half-life in data set [4] (animal P0001) was 185 h. Further, in data set [4] (animal P0101), the AUC(0-inf) was found to be 44.7 µM·h, the CL/F is 0.45 mL/h/kg, the peak level (Cmax) was 138 nM and the Tmax amounted to 72 h. For the same molecule, the half-life in data set [4] (animal P0101) was 170 h. Moreover, in data set [5] (Mean), the AUC(0-inf) was found to be 8.59 µM·h, the CL/F is 2.33 mL/h/kg, the peak level (Cmax) was 90 nM and the time to peak (Tmax) worked out at 24 h. This molecule also had a half-life in data set [5] (Mean) of 58 h. In data set [5] (animal R0001), the AUC(0-inf) was found to be 8.41 µM·h, the CL/F is 2.38 mL/h/kg, the concentration peaked (Cmax) at 88 nM and the Tmax worked out at 48 h. For the same molecule, the half-life in data set [5] (animal R0001) was 47 h. Moreover, in data set [5] (animal R0002), the AUC(0-inf) came to 8.7 µM·h, the CL/F was 2.3 mL/h/kg, the peak level (Cmax) was 81 nM and the Tmax was 12 h. The same molecule showed a half-life in data set [5] (animal R0002) of 60 h. In addition, in data set [5] (animal R0003), the AUC(0-inf) came out at 8.65 µM·h, the CL/F was 2.31 mL/h/kg, the Cmax was 99 nM and the Tmax was determined as 12 h. The molecule also gave a half-life in data set [5] (animal R0003) of 67 h. Besides, in data set [6], the “# of clusters” value stood at 0, the “% Donors (displaying non-germline residues)” value is 0% and the “immunogenicity risk (MAPPs)” value was “low level of immunogenicity risk”. In data set [7], the “% Positive Donors” value is 12.5%, the “CDI Range High” value is given as 19.7, the “CDI Range Low” value was determined as 0.7 and the “Median CDI (All donors)” value stood at 1.0. In data set [7], the “Median CDI (Positive Donors)” value was 19.7, the “Number of donors (positive/tested)” value is on record as 1/8 and the “immunogenicity risk (T cell proliferation)” value is listed as “low level of immunogenicity risk”.

The values are drawn from patent US12558430B2, “Dual amylin and calcitonin receptor agonists and uses thereof” (Eli Lilly and Company, priority 2020, dated 2026).
